Experimental findings from ChEMBL document CHEMBL3228010, “Potential antitumor agents. 29. Quantitative structure-activity relationships for the antileukemic bisquaternary ammonium heterocycles” (J Med Chem, 1979) are described below.

The test system of data set [1] is L1210. Kind of data set: Antitumor activity against mouse L1210 cells […] in ip dosed C3H X DBA2 F1 hybrid mouse on day 0 and dosed at LD10 level once daily on days 1 to 5 assessed as increase in life span relative to control. It counts as functional.
Data set [2] can be described thus: Lipophilic-hydrophilic balance, Rm of the compound by partition chromatography. It counts as physicochemical.
Data set [3] has as its system L1210. Nature of the data set: Antitumor activity against mouse L1210 cells […] in ip dosed C3H X DBA2 F1 hybrid mouse on day 0 and dosed once daily on days 1 to 5 assessed as increase in life span relative to control. Format: functional.
In another data set the test system is Mus musculus. Nature of the data set: Toxicity in ip dosed C3H X DBA2 F1 hybrid mouse […] with mouse L1210 cells on day 0 and dosed once daily on days 1 to 5 measured after 50 days. It counts as organism-based. To be noted: in vivo, 1200 h.

Molecules are shown by their SMILES.

For `CCC[n+]1cccc2cc(NC(=O)COc3ccc(C(=O)Nc4ccc5c(ccc[n+]5CCC)c4)cc3)ccc21.Cc1ccc(S(=O)(=O)[O-])cc1.Cc1ccc(S(=O)(=O)[O-])cc1`, the “log(ILSmax)” value in the data set on L1210 [1] is 1.59. For the same compound, the Rm in data set [2] amounted to 0.15. In the data set on L1210 [3], the D40 is 6.3 mg/kg. Also, the LD10 in the data set with Mus musculus was 8.3 mg/kg.
As to `CCC[n+]1cccc2cc(NC(=O)c3ccc(C(=O)Nc4ccc5c(ccc[n+]5CCC)c4)c(N)c3)ccc21.Cc1ccc(S(=O)(=O)[O-])cc1.Cc1ccc(S(=O)(=O)[O-])cc1`, the “log(ILSmax)” value in the data set with L1210 [1] is reported as 1.92. This compound also had a Rm in data set [2] of 0.25. For the same compound, the D40 in the data set on L1210 [3] was 3.9 mg/kg. The compound further registered an LD10 in the data set with Mus musculus of 10 mg/kg.
As for `CCCC[n+]1cccc2cc(NC(=O)c3ccc(NC(=O)c4ccc(C(=O)Nc5ccc6c(ccc[n+]6CCCC)c5)cc4)cc3)ccc21.Cc1ccc(S(=O)(=O)[O-])cc1.Cc1ccc(S(=O)(=O)[O-])cc1`, in the data set with L1210 [1], the “log(ILSmax)” value stood at 1.91. In data set [2], this compound gave a Rm of 0.26. Also, the D40 in the data set with L1210 [3] is 41 mg/kg. The compound also came in with an LD10 with Mus musculus of 100 mg/kg.
As for `CC[n+]1cccc(NC(=O)c2ccc(NC(=O)c3cccc(C(=O)Nc4ccc(C(=O)Nc5ccc[n+](CC)c5)cc4)c3)cc2)c1.Cc1ccc(S(=O)(=O)[O-])cc1.Cc1ccc(S(=O)(=O)[O-])cc1`, in the data set on L1210 [1], the “log(ILSmax)” value turned out to be 1.6. Moreover, the Rm in data set [2] was found to be 0.51. Moreover, in the data set on L1210 [3], the D40 came out at 12 mg/kg. The same compound came in with an LD10 in the data set with Mus musculus of 12 mg/kg.
For the compound `CC[n+]1cccc2ccc(NC(=O)c3ccc(NC(=O)c4ccc(C(=O)Nc5ccc6ccc[n+](CC)c6c5)cc4)cc3)cc21.Cc1ccc(S(=O)(=O)[O-])cc1.Cc1ccc(S(=O)(=O)[O-])cc1`, the “log(ILSmax)” value with L1210 [1] was found to be 2. Moreover, the Rm in data set [2] is on record as -0.4. Further, the D40 in the data set on L1210 [3] was determined as 12 mg/kg. Also, the LD10 in the data set on Mus musculus was found to be 30 mg/kg.
The corresponding values for `CC[n+]1ccc(Nc2ccc(NC(=O)/C=C/c3ccc(C(=O)Nc4ccc(Nc5cc[n+](CC)cc5)c(N)c4)cc3)cc2N)cc1.[Br-].[Br-]` are 2.3, 0.35, 1.4 mg/kg and 7.5 mg/kg.
The corresponding values for `CCC[n+]1cccc(-c2ccc(NC(=O)/C=C/c3ccc(C(=O)Nc4ccc(-c5ccc(-c6ccc(-c7ccc[n+](CCC)c7)cc6)cc5)cc4)cc3)cc2)c1.Cc1ccc(S(=O)(=O)[O-])cc1.Cc1ccc(S(=O)(=O)[O-])cc1` are 2.2, 0.02, 6.4 mg/kg and 20 mg/kg.
Regarding `CC[n+]1cccc(NC(=O)c2ccc(NC(=O)c3ccc(C(=O)Nc4ccc(C(=O)Nc5ccc[n+](CC)c5)c(N)c4)cc3)cc2N)c1.Cc1ccc(S(=O)(=O)[O-])cc1.Cc1ccc(S(=O)(=O)[O-])cc1`, the “log(ILSmax)” value in the data set on L1210 [1] was 2.18. For the same compound, in data set [2], the Rm is on record as -0.65. Also, in the data set on L1210 [3], the D40 was 3.2 mg/kg. This compound yielded an LD10 in the data set with Mus musculus of 10 mg/kg.
On to `CC[n+]1cccc(NC(=O)c2ccc(NC(=O)c3ccc(C(=O)Nc4ccc(C(=O)Nc5ccc[n+](CC)c5)c(N)c4)c(N)c3)cc2N)c1.Cc1ccc(S(=O)(=O)[O-])cc1.Cc1ccc(S(=O)(=O)[O-])cc1`, for which, in the data set on L1210 [1], the “log(ILSmax)” value is on record as 2.29. In data set [2], this compound returned a Rm of -0.9. Also, in the data set with L1210 [3], the D40 was 2.6 mg/kg. The compound also returned an LD10 in the data set on Mus musculus of 14 mg/kg.
Turning to `C[n+]1ccc(Nc2ccc(NC(=O)c3ccc(C(=O)Nc4ccc(C(=O)Nc5ccc[n+](C)c5)cc4)cc3)cc2)cc1.Cc1ccc(S(=O)(=O)[O-])cc1.Cc1ccc(S(=O)(=O)[O-])cc1`, the “log(ILSmax)” value in the data set with L1210 [1] amounted to 2.03. The compound further returned a Rm in data set [2] of 0.07. For the same compound, the D40 in the data set with L1210 [3] came out at 0.8 mg/kg. In the data set on Mus musculus, this compound displayed an LD10 of 9 mg/kg.
Take `CC[n+]1ccc(Nc2ccc(NC(=O)/C=C/c3ccc(C(=O)Nc4ccc(Nc5cc[n+](CC)cc5)cc4)cc3)cc2)cc1.Cc1ccc(S(=O)(=O)[O-])cc1.Cc1ccc(S(=O)(=O)[O-])cc1`: the “log(ILSmax)” value with L1210 [1] is 2.2. Besides, the Rm in data set [2] is recorded as -0.03. The D40 with L1210 [3] was determined as 1.6 mg/kg. This compound displayed an LD10 with Mus musculus of 8 mg/kg.
In the case of `CCC[n+]1cccc(-c2ccc(NC(=O)c3ccc(C(=O)Nc4ccc(-c5ccc(-c6ccc(-c7ccc[n+](CCC)c7)cc6)cc5)cc4)cc3)cc2)c1.Cc1ccc(S(=O)(=O)[O-])cc1.Cc1ccc(S(=O)(=O)[O-])cc1`, the “log(ILSmax)” value in the data set with L1210 [1] came out at 2.16. In addition, the Rm in data set [2] is -0.25. Besides, in the data set with L1210 [3], the D40 worked out at 4 mg/kg. Also, in the data set with Mus musculus, the LD10 stood at 59 mg/kg.
On to `CCC[n+]1cccc(NC(=O)c2ccc(NC(=O)c3ccc(C(=O)Nc4ccc(C(=O)Nc5ccc[n+](CCC)c5)c(N)c4)cc3)cc2N)c1.Cc1ccc(S(=O)(=O)[O-])cc1.Cc1ccc(S(=O)(=O)[O-])cc1`, for which, in the data set on L1210 [1], the “log(ILSmax)” value was determined as 2.02. In data set [2], the Rm was -0.38. Besides, in the data set with L1210 [3], the D40 worked out at 5 mg/kg. For the same compound, the LD10 in the data set on Mus musculus was 30 mg/kg.
Consider `CC[n+]1cccc(NC(=O)c2ccc(NC(=O)c3ccc(C(=O)Nc4ccc(C(=O)Nc5ccc[n+](CC)c5)c(OC)c4)cc3)cc2OC)c1.Cc1ccc(S(=O)(=O)[O-])cc1.Cc1ccc(S(=O)(=O)[O-])cc1`, for which the “log(ILSmax)” value in the data set on L1210 [1] was 1.76. This compound also had a Rm in data set [2] of 0.45. In the data set with L1210 [3], the D40 amounted to 24 mg/kg. In the data set on Mus musculus, this compound yielded an LD10 of 40 mg/kg.
On the same counts, the results for `CCC[n+]1cccc(NC(=O)c2ccc(NC(=O)c3ccc(C(=O)Nc4ccc(C(=O)Nc5ccc[n+](CCC)c5)c(OC)c4)cc3)cc2OC)c1.Cc1ccc(S(=O)(=O)[O-])cc1.Cc1ccc(S(=O)(=O)[O-])cc1` are 1.79, 0.7, 22 mg/kg and 37 mg/kg.
The corresponding values for `COCC[n+]1cccc2cc(NC(=O)c3ccc(C(=O)Nc4ccc5c(ccc[n+]5CCOC)c4)cc3)ccc21.Cc1ccc(S(=O)(=O)[O-])cc1.Cc1ccc(S(=O)(=O)[O-])cc1` are 2.04, 0.4, 11 mg/kg and 17 mg/kg.
On to `CC[n+]1cccc(NC(=O)c2ccc(NC(=O)c3ccc(C(=O)Nc4ccc(C(=O)Nc5ccc[n+](CC)c5)cc4OC)cc3)c(OC)c2)c1.Cc1ccc(S(=O)(=O)[O-])cc1.Cc1ccc(S(=O)(=O)[O-])cc1`, for which, in the data set with L1210 [1], the “log(ILSmax)” value came out at 1.86. Moreover, the Rm in data set [2] was -0.15. In the data set with L1210 [3], the D40 came out at 10.3 mg/kg. Further, in the data set with Mus musculus, the LD10 came to 25 mg/kg.
On the same counts, the results for `CCC[n+]1cc(-c2ccc(NC(=O)c3ccc(Nc4cc[n+](CCC)c5ccc(N)cc45)cc3N)cc2)c(N)nc1N.Cc1ccc(S(=O)(=O)[O-])cc1.Cc1ccc(S(=O)(=O)[O-])cc1` are 2.03, 0.56, 13.7 mg/kg and 50 mg/kg.
In the case of `CCC[n+]1cccc2cc(NC(=O)c3ccc(C(=O)Nc4ccc(NC(=O)c5ccc6c(ccc[n+]6CCC)c5)cc4)cc3)ccc21.Cc1ccc(S(=O)(=O)[O-])cc1.Cc1ccc(S(=O)(=O)[O-])cc1`, the “log(ILSmax)” value with L1210 [1] is given as 2.08. The compound further gave a Rm in data set [2] of 0. The D40 in the data set with L1210 [3] amounted to 60 mg/kg. Besides, in the data set on Mus musculus, the LD10 was 80 mg/kg.
For the compound `CCC[n+]1cccc2cc(NC(=O)c3ccc(-c4ccc(-c5ccc(-c6ccc(C(=O)Nc7ccc8c(ccc[n+]8CCC)c7)cc6)cc5)cc4)cc3)ccc21.Cc1ccc(S(=O)(=O)[O-])cc1.Cc1ccc(S(=O)(=O)[O-])cc1`, the “log(ILSmax)” value with L1210 [1] was found to be 2.01. In data set [2], this compound had a Rm of 0.49. In the data set with L1210 [3], the D40 was 17 mg/kg. The LD10 with Mus musculus was found to be 45 mg/kg.
The corresponding values for `C[n+]1cccc(NC(=O)c2ccc(NC(=O)c3ccc(C(=O)Nc4ccc(C(=O)Nc5ccc[n+](C)c5)cc4)cc3)cc2)c1.[I-].[I-]` are 2.02, -0.12, 7.5 mg/kg and 17 mg/kg.
The corresponding values for `CC[n+]1cccc(NC(=O)c2ccc(NC(=O)c3ccc(C(=O)Nc4ccc(C(=O)Nc5ccc[n+](CC)c5)cc4)c(C)c3)cc2)c1.Cc1ccc(S(=O)(=O)[O-])cc1.Cc1ccc(S(=O)(=O)[O-])cc1` are 1.85, 0.38, 9.6 mg/kg and 26 mg/kg.
The corresponding values for `CCCCC[n+]1cccc2cc(NC(=O)c3ccc(C(=O)Nc4ccc5c(ccc[n+]5CCCCC)c4)cc3)ccc21.Cc1ccc(S(=O)(=O)[O-])cc1.Cc1ccc(S(=O)(=O)[O-])cc1` are 1.62, 0.92, 55 mg/kg and 57 mg/kg.
On to `CC[n+]1cccc(NC(=O)c2ccc(NC(=O)c3ccc(C(=O)Nc4ccc(C(=O)Nc5ccc[n+](CC)c5)cc4)c(Cl)c3)cc2)c1.Cc1ccc(S(=O)(=O)[O-])cc1.Cc1ccc(S(=O)(=O)[O-])cc1`, for which the “log(ILSmax)” value with L1210 [1] came to 1.7. Further, in data set [2], the Rm was 0.42. Further, in the data set with L1210 [3], the D40 was found to be 22 mg/kg. For the same compound, the LD10 with Mus musculus came to 29 mg/kg.
The corresponding values for `CC[n+]1cccc2cc(NC(=O)c3ccc(C(=O)Nc4ccc5c(ccc[n+]5CC)c4)nc3)ccc21.Cc1ccc(S(=O)(=O)[O-])cc1.Cc1ccc(S(=O)(=O)[O-])cc1` are 1.42, -0.15, 6 mg/kg and 6 mg/kg.
On the same counts, the results for `CC[n+]1ccc(Nc2ccc(NC(=O)c3ccc(Nc4cc[n+](CC)c5ccccc45)cc3)cc2N)cc1.[I-].[I-]` are 1.69, 0.56, 5.1 mg/kg and 10 mg/kg.
As for `CC[n+]1ccc(Nc2ccc(C(=O)Nc3ccc(/C(C)=N/NC(=N)N)cc3)c(N)c2)c2cc(N)ccc21.Cc1ccc(S(=O)(=O)O)cc1.Cc1ccc(S(=O)(=O)[O-])cc1`, the “log(ILSmax)” value in the data set with L1210 [1] amounted to 2.32. In data set [2], this compound came in with a Rm of -0.2. In the data set on L1210 [3], the D40 worked out at 6 mg/kg. Also, the LD10 with Mus musculus stood at 50 mg/kg.
